IC50 and melting point data for seven molecules are collected here from patent publication US8546440B2, “Substituted bicyclic imidazole derivatives as gamma secretase modulators” (Janssen Pharmaceuticals, Inc., priority 2008, dated 2013).

Series [1] has as its system Aβtotal. The series is described as follows: Screening for γ-secretase-modulating activity, Method 2: Aβtotal Alphalisa in supernatant of SKNBE2 cells carrying APP 695 wild type (Table 12c). As to conditions: Homo sapiens, Method 2, Table 12c, incubated overnight. It is filed as cell-based. In outline: (§1)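 SKNBE2 cells expressing wild-type APP695, 10^4 cells/well, exposed to compound overnight at 37 °C; secreted Aβ42 and Aβtotal in supernatant measured by AlphaLISA sandwich immunoassays (Aβ42: C-terminal/N-terminal antibodies; Aβtotal: N-terminal/4G8). IC50 from 4-parameter fit of % untreated control.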

The test system of series [2] is Aβ42. The series is described as follows: Screening for γ-secretase-modulating activity, Method 2: Aβ42 Alphalisa in supernatant of SKNBE2 cells carrying APP 695 wild type (Table 12c). Type of series: cell-based. The following applies: Homo sapiens, Method 2, Table 12c, incubated overnight. In outline: as §1
The subject of series [3] is Aβtotal. The series can be described thus: Screening for γ-secretase-modulating activity, Method 1: Aβtotal sandwich ELISA in supernatant of SKNBE2 cells carrying APP 695 wild type (Tables 12a, 12b). Type of series: cell-based. The following applies: Homo sapiens. In outline:
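Aβtotal in conditioned medium was measured by 6E10/biotin-4G8 sandwich ELISA with fluorogenic peroxidase read-out. Cells were wild-type APP 695 SKNBE2, treated 18 hours in glutamine-supplemented Ultraculture. IC50 came from 4-parameter fits of inhibition, or percent of control, against concentration; toxicity was checked by WST-1.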
A general note: In an ELISA, binding on a coated surface is turned into a signal by an enzyme label.

The test system of series [4] is Aβ42. The series is described as follows: Screening for γ-secretase-modulating activity, Method 1: Aβ42 sandwich ELISA in supernatant of SKNBE2 cells carrying APP 695 wild type (Tables 12a, 12b). Type of series: cell-based. As to conditions: Homo sapiens. The method, boiled down:
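Aβ42 levels in the supernatant were measured by ELISA with 450 nm colorimetric read-out after 18 h compound exposure of wild-type APP695 SKNBE2 cells plated one day earlier. IC50 was fitted with a 4-parameter model, either with fixed top/bottom and a Hill slope of 1, or as averaged values from % of vehicle control; WST-1 was used to flag cytotoxicity.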

Where [5] appears, read: Table 12b, Method 1, SKNBE2 cells carrying APP 695 wild type, cell supernatant ELISA, averaged IC50 values.
Where [6] appears, read: Table 12b, Method 1, SKNBE2 cells carrying APP 695 wild type, cell supernatant ELISA, averaged IC50 values, percentage of control vs log concentration.
Setting [7] is: Method 1, Table 12a, SKNBE2 cells carrying APP 695 wild type, compounds 18 hours, ELISA, curve top and bottom fixed to 100 and 0, hill slope 1.

Broadly, the IC50 is the midpoint of a concentration-inhibition curve. In general, melting point refers to the temperature of the solid-liquid transition.

For the molecule `COc1nc(Nc2cc(C(C)C)nn3cc(-c4ccccc4Cl)nc23)ccc1-n1cnc(C)c1` [Compound 163], the melting point was 179.3 °C. In the series with Aβtotal [1], the IC50 was found to be 8320 nM. Half-maximal inhibition with Aβ42 [2] (IC50) required 166 nM.

On to `COc1cc(Nc2cccn3cc(-c4cc(C#N)ccc4C)nc23)ccc1-n1cnc(C)c1` [Compound 105], for which the melting point stood at 127.5 °C. For the same molecule, the IC50 in the series with Aβtotal [3] (setting [5]) is over 3020 nM. This molecule also yielded an IC50 with Aβ42 [4] (setting [6]) of 89 nM. The molecule further yielded an IC50 in the series on Aβtotal [1] of 6610 nM. For the same molecule, the midpoint of inhibition in the series with Aβ42 [2], the IC50, lay at 32 nM.

Turning to `COc1nc(Nc2cccn3c(C)c(-c4ccccc4Cl)nc23)ccc1-n1cnc(C)n1` [Compound 145], the melting point stood at 250.3 °C. In addition, the IC50 in the series with Aβtotal [1] is over 10000 nM. For the same molecule, the IC50 with Aβ42 [2] turned out to be 7 nM.

In the case of `COc1cc(Nc2cccn3c(OC)c(-c4ccc(F)cc4)nc23)ccc1-n1cnc(C)n1` [Compound 132], the melting point is 165.1 °C. Moreover, the IC50 with Aβtotal [1] came out at 6920 nM. The molecule further returned an IC50 in the series on Aβ42 [2] of 251 nM.

As for `COCCc1c(-c2ccc(F)cc2)nc2c(Nc3ccc(-n4cnc(C)n4)c(OC)c3)cccn12` [Compound 127], the melting point turned out to be 149.5 °C. In the series on Aβtotal [3] (setting [5]), this molecule displayed an IC50 of over 10000 nM. The IC50 in the series on Aβ42 [4] (setting [6]) was determined as 89 nM. For the same molecule, in the series on Aβtotal [1], the IC50 is over 10000 nM. This molecule also registered a half-inhibitory concentration (IC50) with Aβ42 [2] of 56 nM.

Turning to `Cc1cn2cccc(Nc3ccc(-n4cnc(C)n4)cc3)c2n1` [Compound 78], the melting point came to 213.1 °C. In the series with Aβtotal [3] (setting [7]), this molecule came in with an IC50 of over 10000 nM. For the same molecule, the IC50 with Aβtotal [3] (setting [5]) was over 10000 nM. In addition, the IC50 in the series on Aβ42 [4] (setting [7]) amounted to 6440 nM. The molecule also yielded an IC50 in the series with Aβ42 [4] (setting [6]) of 9550 nM.

With `COc1cc(Nc2cccn3cc(-c4ccc(C#N)cc4)nc23)ccc1-n1cnc(C)c1` [Compound 31], the melting point turned out to be 193.4 °C. The same molecule showed an IC50 with Aβtotal [3] (setting [7]) of over 5000 nM. Further, the IC50 in the series on Aβtotal [3] (setting [5]) is over 30200 nM. Also, the IC50 in the series on Aβ42 [4] (setting [7]) turned out to be 595 nM. This molecule displayed an IC50 in the series with Aβ42 [4] (setting [6]) of 589 nM.
